{"source": "paper PMC6508792", "about": "“Arabidopsis MATE45 antagonizes local abscisic acid signaling to mediate development and abiotic stress responses” (Plant Direct, 2018)", "biological_target": "T1, MATE45^long (Arabidopsis thaliana, UniProt A0A1L2EGK5)", "T1 construct": "gene At1g71870; long splice form ORF cloned from wild-type seedling cDNA, in pDEST42, expressed in Escherichia coli acrB", "T1 sequence (A0A1L2EGK5 1-510)": "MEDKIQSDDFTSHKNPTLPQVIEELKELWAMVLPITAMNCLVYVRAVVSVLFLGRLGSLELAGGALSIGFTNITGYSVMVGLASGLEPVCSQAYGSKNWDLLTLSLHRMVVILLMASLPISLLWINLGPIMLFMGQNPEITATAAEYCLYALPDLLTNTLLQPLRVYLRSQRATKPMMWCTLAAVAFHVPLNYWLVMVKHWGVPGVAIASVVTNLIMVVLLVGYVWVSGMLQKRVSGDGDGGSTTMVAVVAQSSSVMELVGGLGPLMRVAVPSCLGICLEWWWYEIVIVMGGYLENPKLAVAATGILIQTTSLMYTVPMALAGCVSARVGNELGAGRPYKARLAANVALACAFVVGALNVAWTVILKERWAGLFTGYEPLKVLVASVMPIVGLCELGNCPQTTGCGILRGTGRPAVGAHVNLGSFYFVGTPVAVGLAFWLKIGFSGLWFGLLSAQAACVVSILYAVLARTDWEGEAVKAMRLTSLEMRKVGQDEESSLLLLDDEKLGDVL", "test": "uptake into E. coli acrB cells, LC-MS MRM", "assay_type": "cell-based", "details": "0.5 uM (+)-ABA, 30 min; Venus fluorescent protein as control"}
{"compound": "CC1=CC(=O)CC(C)(C)C1(O)/C=C/C(C)=C\\C(=O)O", "note": "(stereo in doubt) [(+)-ABA, (+)‐ABA]", "values": [{"measurement": "rate of (+)-ABA uptake", "result": "significantly higher rates of ABA uptake into E. coli cells expressing MATE45^long compared to the control"}]}
